molecular target: T1, GPR43 (Homo sapiens, UniProt O15552); assay: Calcium mobilization assay with probenecid; assay type: cell-based; settings: GPR43 stably expressing cells; triggered with sodium acetate at EC80; 2.5 mM probenecid; read-out: GPR43 assay with probenicid IC50
T1 construct: expressed in transfected cells
T1 sequence (O15552 1-330): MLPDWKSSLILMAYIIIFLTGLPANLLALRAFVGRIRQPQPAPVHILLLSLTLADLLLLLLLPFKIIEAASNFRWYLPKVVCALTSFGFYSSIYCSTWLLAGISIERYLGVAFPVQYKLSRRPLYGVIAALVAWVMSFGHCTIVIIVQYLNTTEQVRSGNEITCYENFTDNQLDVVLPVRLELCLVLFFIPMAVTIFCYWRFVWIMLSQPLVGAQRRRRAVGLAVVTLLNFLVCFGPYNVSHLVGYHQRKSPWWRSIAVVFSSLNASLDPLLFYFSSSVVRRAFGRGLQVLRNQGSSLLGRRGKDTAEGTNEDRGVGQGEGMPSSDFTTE
Description: The following assay can be used for determination of GPR43 activation. The assay measures intracellular calcium release induced by activation of GPR43. On day 1, GPR43 stably expressing cells were detached with mild trypsinization (Trypsin, 0.25% with EDTA 4Na, 5× diluted in PBS) centrifuged at 1000 rpm for 5 min and resuspended at 6.000 cells/25 […] medium (DMEM supplemented with 10% FBS, 10 μg/mL puromycin and 1% Pen/Strep). The cells were distributed in poly-D-lysine coated 384 well plates (black with clear bottom, 25 μL/well) and incubated overnight at 37° C. 10% CO2.
On day 2, 25 μL of a fluorescent Ca^2+ indicator (Calcium 4 assay; Molecular Devices) supplemented with 2.5 mM probenecid was added on top of the cells and incubated for 2 h at 37° C. Subsequently, compounds at increasing concentration (10 μL/well) were added to the plate and incubated for 15 min at 37° C.
To measure agonist activity of the compounds, compound was added to the well and the Ca^2+-flux was measured simultaneously to the […] of compound.

| SMILES | IC50 [nM] |
| --- | --- |
| Cc1cc(C)cc(NC(=O)N2CCC2(C)C(=O)N(CCCC(=O)O)Cc2ccc(Cl)cc2)c1 (stereo not shown) [Compound 200, 4-{(4-chloro-benzyl)-[1-(3,5-dimethyl-phenylcarbamoyl)-2-methyl-azetidine-2-carbonyl]-amino}-butyric acid] | > 1000 |
| Cc1cc(C)cc(CC(=O)N2CCC2(C)C(=O)N(CCS(=O)(=O)N2CCOCC2)Cc2ccc(Cl)cc2)c1 (stereo not shown) [Compound 179, 1-[2-(3,5-Dimethyl-phenyl)-acetyl]-2-methyl-azetidine-2-carboxylic acid (4-chloro-benzyl)-[2-(morpholine-4-sulfonyl)-ethyl]-amide] | > 1000 |
| CC1(C(=O)N(CCCC(=O)O)Cc2ccn3ccnc3c2)CCN1C(=O)Cc1csc2ccccc12 (stereo not shown) [Compound 177, 4-{[1-(2-Benzo[b]thiophen-3-yl-acetyl)-2-methyl-azetidine-2-carbonyl]-imidazo[1,2-a]pyridin-7-ylmethyl-amino}-butyric acid] | > 1000 |
| CN(Cc1ccc(Cl)cc1)C(=O)C1(C)CCN1C(=O)Cc1cc2ccccc2s1 (stereo not shown) [Compound 108, 1-(2-Benzo[b]thiophen-2-yl-acetyl)-2-methyl-azetidine-2-carboxylic acid (4-chloro-benzyl)-methyl-amide] | > 1000 |
| CC1(C(=O)N(CCCC(=O)N2CCOCC2)Cc2ccc(Cl)cc2)CCN1C(=O)c1ccc2sccc2c1 (stereo not shown) [Compound 138, 1-(benzo[b]thiophene-5-carbonyl)-N-(4-chlorobenzyl)-2-methyl-N-(4-morpholino-4-oxobutyl)azetidine-2-carboxamide] | > 1000 |
| CCOC(=O)CCCN(Cc1cccc(Cl)c1)C(=O)C1(C)CCN1C(=O)c1csc2ccccc12 (stereo not shown) [Compound 143, ethyl 4-(1-(benzo[b]thiophene-3-carbonyl)-N-(3-chlorobenzyl)-2-methylazetidine-2-carboxamido)butanoate] | > 1000 |
| Cc1cc(C)cc(CC(=O)N2CCC2(C)C(=O)N(CCc2cc(O)n(C)n2)Cc2ccc(Cl)cc2)c1 (stereo not shown) [Compound 117, 1-[2-(3,5-Dimethyl-phenyl)-acetyl]-2-methyl-azetidine-2-carboxylic acid (4-chloro-benzyl)-[2-(5-hydroxy-1-methyl-1H-pyrazol-3-yl)-ethyl]-amide] | > 1000 |
| CC1(C(=O)N(CCCC(=O)O)Cc2ccc(Cl)cc2)CCN1C(=O)Oc1ccc(Cl)cc1Cl (stereo not shown) [Compound 238, 4-(N-(4-chlorobenzyl)-1-((2,4-dichlorophenoxy)carbonyl)-2-methylazetidine-2-carboxamido)butanoic acid] | > 1000 |
| Cc1ccc(OC(=O)N2CCC2(C)C(=O)N(CCCC(=O)O)Cc2ccc(Cl)cc2)c(C)c1 (stereo not shown) [Compound 213, 4-(N-(4-chlorobenzyl)-1-((2,4-dimethylphenoxy)carbonyl)-2-methylazetidine-2-carboxamido)butanoic acid] | > 1000 |
| Cc1ccccc1OC(=O)N1CCC1(C)C(=O)N(CCCC(=O)O)Cc1ccc(Cl)cc1 (stereo not shown) [Compound 205, 2-[(3-Carboxy-propyl)-(4-chloro-benzyl)-carbamoyl]-2-methyl-azetidine-1-carboxylic acid o-tolyl ester] | > 1000 |
| Cc1ccc(OC(=O)N2CCC2(C)C(=O)N(CCCC(=O)O)Cc2ccc(Cl)cc2)c(Cl)c1 (stereo not shown) [Compound 223, 4-(1-((2-chloro-4-methylphenoxy)carbonyl)-N-(4-chlorobenzyl)-2-methylazetidine-2-carboxamido)butanoic acid] | > 1000 |
| CC1(C(=O)N(CCCC(=O)O)Cc2ccc(Cl)cc2)CCN1C(=O)n1ccc2ccccc21 (stereo not shown) [Compound 237, 4-(N-(4-chlorobenzyl)-1-(1H-indole-1-carbonyl)-2-methylazetidine-2-carboxamido)butanoic acid] | > 1000 |
| CC1(C(=O)N(CCCC(=O)O)Cc2cccc(Cl)c2)CCN1C(=O)Cc1csc2ccccc12 (stereo not shown) [Compound 148, 4-[[1-(2-Benzo[b]thiophen-3-yl-acetyl)-2-methyl-azetidine-2-carbonyl]-(3-chloro-benzyl)-amino]-butyric acid] | 501 to 1000 |

Now from value to compound:

| IC50 [nM] | SMILES |
| --- | --- |
| 501 to 1000 | Cc1cc(C)cc(CC(=O)N2CCC2(C)C(=O)N(CC(=O)NS(=O)(=O)c2ccccc2)Cc2ccc(Cl)cc2)c1 (stereo not shown) [Compound 104, 1-[2-(3,5-Dimethyl-phenyl)-acetyl]-2-methyl-azetidine-2-carboxylic acid (2-benzenesulfonylamino-2-oxo-ethyl)-(4-chloro-benzyl)-amide] |
| 501 to 1000 | CC1(C(=O)N(CCCC(=O)O)c2cc(Cl)ccn2)CCN1C(=O)c1csc2ccccc12 (stereo not shown) [Compound 252, 4-(1-(benzo[b]thiophene-3-carbonyl)-N-(4-chloropyridin-2-yl)-2-methylazetidine-2-carboxamido)butanoic acid] |
| 101 to 500 | CC1(C(=O)N(CCCC(=O)O)c2cccc(C(F)(F)F)c2)CCN1C(=O)c1csc2ccccc12 (stereo not shown) [Compound 251, 4-(1-(benzo[b]thiophene-3-carbonyl)-2-methyl-N-(3-(trifluoromethyl)phenyl)azetidine-2-carboxamido)butanoic acid] |
| 501 to 1000 | Cc1cc(C)cc(CC(=O)N2CCC2(C)C(=O)N(CCCC(=O)O)Cc2ccc3ccoc3c2)c1 (stereo not shown) [Compound 162, 4-(Benzofuran-6-ylmethyl-{1-[2-(3,5-dimethyl-phenyl)-acetyl]-2-methyl-azetidine-2-carbonyl}-amino)-butyric acid] |
| 501 to 1000 | CN(Cc1ccc(Cl)cc1)C(=O)C1(C)CCN1C(=O)c1ccc2sccc2c1 (stereo not shown) [Compound 112, 1-(Benzo[b]thiophene-5-carbonyl)-2-methyl-azetidine-2-carboxylic acid (4-chloro-benzyl) methyl-amide] |
| 501 to 1000 | Cc1cc(C)cc(CC(=O)N2CCC2(C)C(=O)N(CCCC(=O)N2CCN(C)CC2)Cc2ccc(Cl)cc2)c1 (stereo not shown) [Compound 124, 1-[2-(3,5-Dimethyl-phenyl)-acetyl]-2-methyl-azetidine-2-carboxylic acid (4-chloro-benzyl)-[4-(4-methyl-piperazin-1-yl)-4-oxo-butyl]-amide] |
| 501 to 1000 | CS(=O)(=O)NC(=O)CCCN(Cc1cccc(Cl)c1)C(=O)C1(Cc2ccc(F)cc2)CCN1C(=O)c1csc2ccccc12 (stereo not shown) [Compound 241, 1-(benzo[b]thiophene-3-carbonyl)-N-(3-chlorobenzyl)-2-(4-fluorobenzyl)-N-(4-(methylsulfonamido)-4-oxobutyl)azetidine-2-carboxamide] |
| 101 to 500 | Cc1cc(C)cc(CC(=O)N2CCC2(C)C(=O)N(CCCS(N)(=O)=O)Cc2ccc(Cl)cc2)c1 (stereo not shown) [Compound 171, 1-[2-(3,5-Dimethyl-phenyl)-acetyl]-2-methyl-azetidine-2-carboxylic acid (4-chloro-benzyl)-(3-sulfamoyl-propyl)-amide] |
| 0.01 to 100 | CC1(C(=O)N(CCCC(=O)NS(C)(=O)=O)c2ccc(Cl)cc2)CCN1C(=O)c1csc2ccccc12 (stereo not shown) [Compound 234, 1-(benzo[b]thiophene-3-carbonyl)-N-(4-chlorophenyl)-2-methyl-N-(4-(methylsulfonamido)-4-oxobutyl)azetidine-2-carboxamide] |
| 101 to 500 | CC1(C(=O)N(CCC(=O)O)Cc2ccc3cn[nH]c3c2)CCN1C(=O)Cc1csc2ccccc12 (stereo not shown) [Compound 176, 3-[[1-(2-Benzo[b]thiophen-3-yl-acetyl)-2-methyl-azetidine-2-carbonyl]-(1H-indazol-6-ylmethyl)-amino]-propionic acid] |
| 101 to 500 | CC1(C(=O)N(CCCC(=O)O)Cc2ccc(C(F)(F)F)cc2)CCN1C(=O)c1csc2ccccc12 (stereo not shown) [Compound 145, 4-[[1-(Benzo[b]thiophene-3-carbonyl)-2-methyl-azetidine-2-carbonyl]-(4-trifluoromethyl-benzyl)-amino]-butyric acid] |
| 0.01 to 100 | CCC1(C(=O)N(CCCS(N)(=O)=O)Cc2cccc(Cl)c2)CCN1C(=O)c1csc2ccccc12 (stereo not shown) [Compound 208, 1-(benzo[b]thiophene-3-carbonyl)-N-(3-chlorobenzyl)-2-ethyl-N-(3-sulfamoylpropyl)azetidine-2-carboxamide] |
| 501 to 1000 | O=C(O)CCCN(Cc1cccc(Cl)c1)C(=O)C1(Cc2ccc(Cl)cc2)CCN1C(=O)c1csc2ccccc12 (stereo not shown) [Compound 225, 4-(1-(benzo[b]thiophene-3-carbonyl)-N-(3-chlorobenzyl)-2-(4-chlorobenzyl)azetidine-2-carboxamido)butanoic acid] |
| 501 to 1000 | Cc1cc(C)cc(CC(=O)N2CCC2(C)C(=O)N(CCCC(=O)O)Cc2ccc3scnc3c2)c1 (stereo not shown) [Compound 185, 4-(Benzothiazol-5-ylmethyl-{1-[2-(3,5-dimethyl-phenyl)-acetyl]-2-methyl-azetidine-2-carbonyl}-amino)-butyric acid] |
| 0.01 to 100 | CNS(=O)(=O)CCCN(Cc1ccc(Cl)cc1)C(=O)C1(C)CCN1C(=O)Cc1csc2ccccc12 (stereo not shown) [Compound 189, 1-(2-Benzo[b]thiophen-3-yl-acetyl)-2-methyl-azetidine-2-carboxylic acid (4-chloro-benzyl)-(3-methylsulfamoyl-propyl)-amide] |
